Results on 16 molecules are retold here after US7592345B2, “Piperazine and [1,4]diazepan derivatives as NK antagonists” (Hoffmann-La Roche Inc., priority 2007, dated 2009).

The structures appear in SMILES notation.

System in one assay: not given
Test: not given
Particulars: phase II trial; cited from earlier work.
As for `CC(=O)N(C)C1(c2ccccc2)CCN(CCC[C@]2(c3ccc(Cl)c(Cl)c3)CCCN(C(=O)c3ccccc3)C2)CC1` [SR 142,801, Osanetant], the “activity in the treatment of negative symptoms” value is “inactive” and the “activity on positive symptoms of schizophrenia” value is “active”.

Another assay deals with T1, recombinant human NK3 receptor (Homo sapiens, UniProt P29371).
T1 construct: expressed in transfected cells; host or cells: HEK293 cells (transient expression), membranes
T1 sequence (P29371 1-465): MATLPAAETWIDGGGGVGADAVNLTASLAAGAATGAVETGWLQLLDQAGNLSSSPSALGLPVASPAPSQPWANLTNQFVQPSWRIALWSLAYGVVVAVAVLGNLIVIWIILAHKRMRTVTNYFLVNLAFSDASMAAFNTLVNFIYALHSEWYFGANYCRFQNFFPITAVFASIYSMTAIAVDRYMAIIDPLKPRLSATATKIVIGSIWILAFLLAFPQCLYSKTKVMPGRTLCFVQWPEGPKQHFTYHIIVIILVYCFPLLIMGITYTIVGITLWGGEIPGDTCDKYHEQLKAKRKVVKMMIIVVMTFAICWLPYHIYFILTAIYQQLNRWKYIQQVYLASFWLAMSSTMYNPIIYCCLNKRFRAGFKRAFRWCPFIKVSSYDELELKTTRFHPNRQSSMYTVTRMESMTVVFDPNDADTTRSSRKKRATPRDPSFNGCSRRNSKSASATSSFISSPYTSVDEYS
As to the kind of experiment: [3H]SR142801 competition binding assay. The note with it: [3H]SR142801, membranes from HEK293 cells transiently expressing recombinant human NK3 receptor; read-out: hNK3 Ki. The gist of the method: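 Membranes from HEK293 cells transiently expressing human NK3 were incubated 75 min at RT with [3H]SR142801 at its KD and inhibitor (0.0003-10 μM) in Tris-HCl pH 7.4/MnCl2/phosphoramidon/BSA. Nonspecific binding used 10 μM SB222200. Ki from Hill-fitted IC50 via Cheng-Prusoff, duplicate determinations.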
On to `CC(NC(=O)C(C)(CCN1CCN(S(C)(=O)=O)[C@@H](C)C1)c1ccc(Cl)c(Cl)c1)c1ccc(Cl)cc1` (stereo partly drawn) [Example 77, N-[1-(4-Chloro-phenyl)-ethyl]-2-(3,4-dichloro-phenyl)-4-((S)-4-methanesulfonyl-3-methyl-piperazin-1-yl)-2-methyl-butyramide], for which the Ki came to 67.4 nM.

On to `CC(CCN1CCCN(S(C)(=O)=O)CC1)(C(=O)NCc1ccc(C(F)(F)F)cc1)c1ccc(Cl)c(Cl)c1` (centres unmarked) [Example 117, 2-(3,4-Dichloro-phenyl)-4-(4-methanesulfonyl-[1,4]diazepan-1-yl)-2-methyl-N-(4-trifluoromethyl-benzyl)-butyramide], for which the inhibition constant (Ki) was determined as 49.6 nM.

`C[C@H]1CN(CCC(C)(C(=O)N(C)Cc2cccc(C(F)(F)F)c2)c2ccc(Cl)c(Cl)c2)CCN1S(C)(=O)=O` (stereo partly drawn) [Example 87, 2-(3,4-Dichloro-phenyl)-4-((S)-4-methanesulfonyl-3-methyl-piperazin-1-yl)-2,N-dimethyl-N-(3-trifluoromethyl-benzyl)-butyramide]: the Ki was 52 nM.

For `C[C@H]1CN(CCC(C)(C(=O)NCc2ccc(Cl)c(Cl)c2)c2ccc(Cl)c(Cl)c2)CCN1S(C)(=O)=O` (stereo partly drawn) [Example 72, N-(3,4-Dichloro-benzyl)-2-(3,4-dichloro-phenyl)-4-((S)-4-methanesulfonyl-3-methyl-piperazin-1-yl)-2-methyl-butyramide], the inhibitory constant (Ki) worked out at 42.9 nM.

Consider `COc1cccc(CN(C)C(=O)C(C)(CCN2CCCN(S(C)(=O)=O)CC2)c2ccc(Cl)c(Cl)c2)c1` (centres unmarked) [Example 120, 2-(3,4-Dichloro-phenyl)-4-(4-methanesulfonyl-[1,4]diazepan-1-yl)-N-(3-methoxy-benzyl)-2,N-dimethyl-butyramide], for which the inhibition constant Ki was determined as 108 nM.

Turning to `C[C@H]1CN(CCC(C)(C(=O)NCc2ccc(OC(F)(F)F)cc2)c2ccc(Cl)c(Cl)c2)CCN1S(C)(=O)=O` (stereo partly drawn) [Example 83, 2-(3,4-Dichloro-phenyl)-4-((S)-4-methanesulfonyl-3-methyl-piperazin-1-yl)-2-methyl-N-(4-trifluoromethoxy-benzyl)-butyramide], the inhibitory constant (Ki) is 57.1 nM.

With `C[C@@H]1CN(CCC(C)(C(=O)N(C)Cc2ccc(C(F)(F)F)cc2)c2ccc(Cl)c(Cl)c2)CCN1S(C)(=O)=O` (stereo partly drawn) [Example 55, 2-(3,4-Dichloro-phenyl)-4-((R)-4-methanesulfonyl-3-methyl-piperazin-1-yl)-2,N-dimethyl-N-(4-trifluoromethyl-benzyl)-butyramide], the Ki came to 16.9 nM.

With `Cc1ccc(CN(C)C(=O)C(C)(CCN2CCN(S(C)(=O)=O)[C@H](C)C2)c2ccc(Cl)c(Cl)c2)cc1` (stereo partly drawn) [Example 36, 2-(3,4-Dichloro-phenyl)-4-((R)-4-methanesulfonyl-3-methyl-piperazin-1-yl)-2,N-dimethyl-N-(4-methyl-benzyl)-butyramide], the Ki came out at 50.8 nM.

`Cc1ccc(CN(C)C(=O)C(C)(CCN2CCCN(S(C)(=O)=O)CC2)c2ccc(Cl)c(Cl)c2)cc1` (centres unmarked) [Example 109, 2-(3,4-Dichloro-phenyl)-4-(4-methanesulfonyl-[1,4]diazepan-1-yl)-2,N-dimethyl-N-(4-methyl-benzyl)-butyramide]: the inhibitory constant (Ki) came to 33.5 nM.

In the case of `CN(Cc1cccc(C(F)(F)F)c1)C(=O)C(C)(CCN1CCCN(S(C)(=O)=O)CC1)c1ccc(Cl)c(Cl)c1` (centres unmarked) [Example 101, 2-(3,4-Dichloro-phenyl)-4-(4-methanesulfonyl-[1,4]diazepan-1-yl)-2,N-dimethyl-N-(3-trifluoromethyl-benzyl)-butyramide], the Ki worked out at 18.4 nM.

Turning to `C[C@H]1CN(CCC(C)(C(=O)N(C)Cc2ccc(Cl)c(Cl)c2)c2ccc(Cl)c(Cl)c2)CCN1S(C)(=O)=O` (stereo partly drawn) [Example 71, N-(3,4-Dichloro-benzyl)-2-(3,4-dichloro-phenyl)-4-((S)-4-methanesulfonyl-3-methyl-piperazin-1-yl)-2,N-dimethyl-butyramide], the inhibitory constant (Ki) came out at 12.5 nM.

Take `C[C@H]1CN(CCC(C)(C(=O)NCc2ccc(C(F)(F)F)cc2)c2ccc(Cl)c(Cl)c2)CCN1S(C)(=O)=O` (stereo partly drawn) [Example 75, 2-(3,4-Dichloro-phenyl)-4-((S)-4-methanesulfonyl-3-methyl-piperazin-1-yl)-2-methyl-N-(4-trifluoromethyl-benzyl)-butyramide]: the inhibitory constant (Ki) was 68.1 nM.

As to `C[C@H]1CN(CCC(C)(C(=O)N(C)Cc2ccc(-c3ccncc3)cc2)c2ccc(Cl)c(Cl)c2)CCN1S(C)(=O)=O` (stereo partly drawn) [Example 61, 2-(3,4-Dichloro-phenyl)-4-((S)-4-methanesulfonyl-3-methyl-piperazin-1-yl)-2,N-dimethyl-N-(4-pyridin-4-yl-benzyl)-butyramide], the Ki is 247 nM.

In the case of `C[C@@H]1CN(CCC(C)(C(=O)NCc2ccc(C#N)cc2)c2ccc(Cl)c(Cl)c2)CCN1S(C)(=O)=O` (stereo partly drawn) [Example 57, N-(4-Cyano-benzyl)-2-(3,4-dichloro-phenyl)-4-((R)-4-methanesulfonyl-3-methyl-piperazin-1-yl)-2-methyl-butyramide], the Ki amounted to 161 nM.

`CC(CCN1CCN(S(C)(=O)=O)CC1)(C(=O)NCc1cccc(OC(F)(F)F)c1)c1ccc(Cl)c(Cl)c1` (centres unmarked) [Example 9, 2-(3,4-Dichloro-phenyl)-4-(4-methanesulfonyl-piperazin-1-yl)-2-methyl-N-(3-trifluoromethoxy-benzyl)-butyramide]: the inhibition constant (Ki) turned out to be 190 nM.
